Consider 19 compounds from ChEMBL document CHEMBL1135042, “Structure-activity relationships for analogues of the phenazine-based dual topoisomerase I/II inhibitor XR11576” (Bioorg Med Chem Lett, 2002).

Each structure is given as a SMILES string.

The subject of assay [1] is NCI-H69. The assay is described as follows: In vitro cytotoxicity against multi-drug resistant human small cell lung carcinoma H69/LX4. The format is functional, cell-based.
Assay [2] has as its system NCI-H69. As to the kind of experiment: In vitro cytotoxicity against human small cell lung carcinoma H69/P. The format is functional, cell-based.
The nature of assay [3]: Ratio of IC50 values against H69/P and […] cell lines. In kind it is functional.

A word on the IC50: it is the concentration at which inhibition is half-maximal. With `CC/N=C(\S)Oc1ccc2c(c1)cc(C(=O)NCCN(C)C)c1nc3ccccc3nc12`, the values for the IC50 in the assay on NCI-H69 [1] and in the assay on NCI-H69 [2] were 583 nM and 519 nM, respectively. For the same compound, the Ratio in assay [3] came out at 1.12.
Regarding `CN(C)CCNC(=O)c1cccc2ncc(-c3ccc([N+](=O)[O-])cc3)nc12`, the IC50 is 3380 nM in the assay with NCI-H69 [1] and 2400 nM in the assay with NCI-H69 [2]. For the same compound, the Ratio in assay [3] is 1.41.
The corresponding values for `C#CCOc1ccc2c(c1)cc(C(=O)NCCN(C)C)c1nc3ccccc3nc12` are 613 nM, 435 nM and 1.4.
For `CN(C)CCNC(=O)c1cc2ccccc2c2nc3ccccc3nc12`, the IC50 in the assay on NCI-H69 [1] turned out to be 511 nM; with NCI-H69 [2], 406 nM. Also, in assay [3], the Ratio came out at 1.26.
`CN(C)CCNC(=O)c1cccc2nc(-c3ccccc3)c(-c3ccccc3)nc12`: the IC50 with NCI-H69 [1] and in the assay with NCI-H69 [2] was > 100000 nM each time.
On to `CN(C)CCNC(=O)c1cccc2ncc(-c3ccccc3)nc12`, for which the half-maximal inhibitory concentration (IC50) was found to be 3590 nM in the assay with NCI-H69 [1] and 3930 nM with NCI-H69 [2]. Further, the Ratio in assay [3] is on record as 0.9.
For `Cc1cccc2nc3c(nc12)c(C(=O)NCCN(C)C)cc1ccccc13`, in that order: 320 nM, 417 nM and 0.8.
For the compound `CN(C)CCNC(=O)c1cccc2nc3c(nc12)-c1cccc2cccc-3c12`, the IC50 amounted to 330 nM in the assay with NCI-H69 [1] and 350 nM with NCI-H69 [2]. In addition, in assay [3], the Ratio was determined as 0.93.
The corresponding values for `CN(C)CCNC(=O)c1cc2cc(OC(=O)Nc3ccccc3)ccc2c2nc3ccccc3nc12` are 252 nM, 104 nM and 2.42.
`CN(C)CCNC(=O)c1cc2cc(OCCCO)ccc2c2nc3ccccc3nc12`: the half-inhibitory concentration (IC50) in the assay on NCI-H69 [1] is 2030 nM; in the assay on NCI-H69 [2], 523 nM. Moreover, in assay [3], the Ratio amounted to 3.87.
For `COc1ccc2c(c1)cc(C(=O)NCCN(C)C)c1nc3ccccc3nc12`, in that order: 358 nM, 282 nM and 1.3.
In the case of `CN(C)CCNC(=O)c1cc2cc(OCc3ccccc3)ccc2c2nc3ccccc3nc12`, the IC50 in the assay on NCI-H69 [1] came out at 1580 nM; in the assay with NCI-H69 [2], 1220 nM. For the same compound, in assay [3], the Ratio is 1.29.
For `COCCOc1ccc2c(c1)cc(C(=O)NCCN(C)C)c1nc3ccccc3nc12`, in that order: 545 nM, 445 nM and 1.23.
For `CN(C)CCNC(=O)c1cc2cccc([N+](=O)[O-])c2c2nc3ccccc3nc12`, the IC50 in the assay with NCI-H69 [1] came out at 584 nM; with NCI-H69 [2] it was 458 nM. For the same compound, in assay [3], the Ratio was determined as 1.3.
Consider `CN(C)CCNC(=O)c1cc2cccc(N)c2c2nc3ccccc3nc12`, for which the IC50 with NCI-H69 [1] turned out to be 345 nM; with NCI-H69 [2], 259 nM. The Ratio in assay [3] turned out to be 1.33.
The corresponding values for `CN(C)CCNC(=O)c1cc2cc(OCCN3CCOCC3)ccc2c2nc3ccccc3nc12` are 592 nM, 506 nM and 1.17.
Regarding `CN(C)CCNC(=O)c1cc2cc(O)ccc2c2nc3ccccc3nc12`, the concentration for half-maximal inhibition (IC50) is 198 nM in the assay with NCI-H69 [1] and 94 nM in the assay on NCI-H69 [2]. Further, the Ratio in assay [3] came out at 2.12.
Take `COc1cccc2c1ccc1nc3cccc(C(=O)N[C@@H](C)CN(C)C)c3nc12`: the concentration for half-maximal inhibition (IC50) in the assay on NCI-H69 [1] and in the assay with NCI-H69 [2] was 20 nM each time.
Regarding `CN(C)CCNC(=O)c1cccc2ncc(-c3ccc4ccccc4c3)nc12`, the values for the 50% inhibitory concentration (IC50) in the assay on NCI-H69 [1] and in the assay with NCI-H69 [2] were 1670 nM and 1820 nM, respectively. Also, the Ratio in assay [3] was determined as 0.92.
